This is an account of results in US11590116B2 (THERAVANCE BIOPHARMA R&D IP, LLC, priority 2019, dated 2023).

Assay [1] concerns the target T1, recombinant human ALK5 (TGF-βR1) protein (Homo sapiens, UniProt P36897).
T1 construct: purchased Life Technologies PR9075A
T1 sequence (P36897 34-503): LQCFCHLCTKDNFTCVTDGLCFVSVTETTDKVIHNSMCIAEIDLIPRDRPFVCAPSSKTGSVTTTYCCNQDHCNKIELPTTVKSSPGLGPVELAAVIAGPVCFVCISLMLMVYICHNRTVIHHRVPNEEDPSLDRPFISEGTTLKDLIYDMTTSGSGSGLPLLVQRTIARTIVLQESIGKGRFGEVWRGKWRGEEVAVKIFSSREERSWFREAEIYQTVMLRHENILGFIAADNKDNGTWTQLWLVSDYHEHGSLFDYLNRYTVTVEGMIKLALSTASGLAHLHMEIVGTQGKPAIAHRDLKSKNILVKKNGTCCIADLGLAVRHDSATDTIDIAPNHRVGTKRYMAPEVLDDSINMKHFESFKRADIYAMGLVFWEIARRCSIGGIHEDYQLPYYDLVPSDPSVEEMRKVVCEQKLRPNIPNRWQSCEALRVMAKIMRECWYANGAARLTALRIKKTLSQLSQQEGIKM
As to the kind of experiment: Biochemical ALK5 (TGF-βR1) assay to measure pKi (LANCE Ultra ULight kinase assay). The conditions noted are these: apparent pKi from pIC50 by Cheng-Prusoff, read-out: ALK5 pKi (converted). In outline: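 Compounds (10 μM to 25 pM) preincubated 60 minutes at room temperature with enzyme, then reaction run 60 minutes at 37° C with ATP added as 125 μM (5× final). Stopped with EDTA plus Eu-anti-phospho-Topoisomerase 2-alpha (Thr1342) antibody, TR-FRET read at 665 nm; pIC50 converted to pKi via Cheng-Prusoff.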
In general terms: In TR-FRET formats the signal depends on donor and acceptor labels being close together.

Assay [2] has as its system TGF-β-stimulated SMAD3 phosphorylation in BEAS-2B cells. As to the kind of experiment: Cellular ALK5 potency assay, inhibition of TGF-β stimulated pSMAD3 formation in BEAS-2B cells. The class given is cell-based. The following applies: Homo sapiens; inhibition of TGF-β stimulated pSMAD3 formation, BEAS-2B cells; read-out: BEAS2B pIC50 (converted). In outline: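 Potency is reported as pIC50, derived from concentration-dependent reduction of pSMAD3 AlphaLISA signal against TGF-β-stimulated cells without compound. BEAS-2B cells received compound for 1 h before a 30-min stimulation with 10 ng/mL TGF-β.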

With `CNCCn1cc(-c2cnc3ccc(-c4nn[nH]c4-c4cccc(C)n4)cc3c2)cn1` [Compound 125, N-methyl-2-(4-(6-(5-(6-methylpyridin-2-yl)-1H-1,2,3-triazol-4-yl)quinolin-3-yl)-1H-pyrazol-1-yl)ethan-1-amine], the Ki in assay [1] was below 0.0316 nM. Moreover, the IC50 in assay [2] is 25.1 to 158 nM.

As to `Cc1cccc(-c2[nH]cnc2-c2ccc3ncc(Nc4ccc(N5CCN(C)CC5)cn4)cc3c2)n1` [Compound 441, N-[5-(4-methylpiperazin-1-yl)-2-pyridyl]-6-[5-(6-methyl-2-pyridyl)-1H-imidazol-4-yl]quinolin-3-amine], in assay [1], the Ki is below 0.0316 nM. Besides, the IC50 in assay [2] was 25.1 to 158 nM.

For the compound `Cc1nc(-c2nc3ccccn3c2-c2ccc3ncc(N4CCC(N(C)C)C4)cc3c2)ccc1F` (racemic) [Compound 544, rac-(3S)-1-[6-[2-(5-fluoro-6-methyl-2-pyridyl)imidazo[1,2-a]pyridin-3-yl]-3-quinolyl]-N,N-dimethyl-pyrrolidin-3-amine], the Ki in assay [1] is 0.0398 to 0.316 nM. For the same compound, in assay [2], the IC50 was 25.1 to 158 nM.

With `Cc1cccc(-c2n[nH]cc2-c2ccc3ncc(NCC(C)(C)N4CCN(C(C)C)CC4)cc3n2)n1` [Compound 698, N-[2-(4-isopropylpiperazin-1-yl)-2-methyl-propyl]-6-[3-(6-methyl-2-pyridyl)-1H-pyrazol-4-yl]-1,5-naphthyridin-3-amine], the Ki in assay [1] was 0.0398 to 0.316 nM. Further, the IC50 in assay [2] is 25.1 to 158 nM.

Turning to `Cc1cccc(-c2[nH]ncc2-c2ccc3ncc(C(=O)O[C@@H]4CCN(C)C4)cc3n2)n1` [Compound 421, [(3R)-1-methylpyrrolidin-3-yl] 6-[5-(6-methyl-2-pyridyl)-1H-pyrazol-4-yl]-1,5-naphthyridine-3-carboxylate], the Ki in assay [1] was 0.398 to 3.16 nM. Moreover, the IC50 in assay [2] is 25.1 to 158 nM.

Consider `Cc1cccc(-c2[nH]ncc2-c2ccc3ncc(C(=O)N(C)CCN4CCOCC4)cc3n2)n1` [Compound 182, N-methyl-6-[5-(6-methyl-2-pyridyl)-1H-pyrazol-4-yl]-N-(2-morpholinoethyl)-1,5-naphthyridine-3-carboxamide], for which the Ki in assay [1] is 3.98 to 31.6 nM. Besides, the IC50 in assay [2] is 200 to 1260 nM.

With `Cc1cccc(-c2[nH]cnc2-c2ccc3ncc(-c4cncc(C(=O)OC5CNC5)c4)cc3c2)n1` [Compound 577, azetidin-3-yl 5-[6-[5-(6-methyl-2-pyridyl)-1H-imidazol-4-yl]-3-quinolyl]pyridine-3-carboxylate], in assay [1], the Ki was 0.0398 to 0.316 nM. The IC50 in assay [2] is 200 to 1260 nM.

Take `Cc1cccc(-c2[nH]ncc2-c2ccc3nccc(C(=O)O[C@H]4CC[C@@](C)(N)CC4)c3c2)n1` [Compound 1155, (4-amino-4-methyl-cyclohexyl) 6-[5-(6-methyl-2-pyridyl)-1H-pyrazol-4-yl]quinoline-4-carboxylate]: the Ki in assay [1] was 3.98 to 31.6 nM. The IC50 in assay [2] is 200 to 1260 nM.

As for `Cc1cccc(-c2[nH]cnc2-c2ccc3ncc(NCCN4CCNC(C(=O)O)C4)cc3c2)n1` (stereo not shown) [Compound 712, 4-[2-[[6-[5-(6-methyl-2-pyridyl)-1H-imidazol-4-yl]-3-quinolyl]amino]ethyl]piperazine-2-carboxylic acid], the Ki in assay [1] is 0.0398 to 0.316 nM. In addition, the IC50 in assay [2] is 200 to 1260 nM.

As for `Cc1cccc(-c2[nH]cnc2-c2ccc3ncc(N4CCC(C(=O)OC5CNC5)CC4)cc3c2)n1` [Compound 705, azetidin-3-yl 1-[6-[5-(6-methyl-2-pyridyl)-1H-imidazol-4-yl]-3-quinolyl]piperidine-4-carboxylate], the Ki in assay [1] was 0.0398 to 0.316 nM. Moreover, the IC50 in assay [2] is 200 to 1260 nM.

As to `Cc1cccc(-c2n[nH]cc2-c2ccc3ncc(NCCN4CCCC4)cc3n2)n1` [Compound 597, 6-[3-(6-methyl-2-pyridyl)-1H-pyrazol-4-yl]-N-(2-pyrrolidin-1-ylethyl)-1,5-naphthyridin-3-amine], the Ki in assay [1] is below 0.0316 nM. In addition, in assay [2], the IC50 is 25.1 to 158 nM.

`Cc1cccc(-c2[nH]cnc2-c2ccc3ncc(C4=CCC(N)CC4)cc3c2)n1` (stereo not shown) [Compound 196, 4-[6-[5-(6-methyl-2-pyridyl)-1H-imidazol-4-yl]-3-quinolyl]cyclohex-3-en-1-amine]: the Ki in assay [1] was below 0.0316 nM. In addition, in assay [2], the IC50 is below 20 nM.

As for `Cc1cccc(-c2[nH]cnc2-c2ccc3ncc(NCCN4CCC[C@H](N)C4)cc3c2)n1` [Compound 623, N-[2-[(3S)-3-amino-1-piperidyl]ethyl]-6-[5-(6-methyl-2-pyridyl)-1H-imidazol-4-yl]quinolin-3-amine], the Ki in assay [1] is 0.0398 to 0.316 nM. Moreover, the IC50 in assay [2] is 200 to 1260 nM.

In the case of `Cc1cccc(-c2[nH]cnc2-c2ccc3ncc(NCCN4CC5(CC(N)C5)C4)cc3c2)n1` [Compound 715, N-[2-(6-amino-2-azaspiro[3.3]heptan-2-yl)ethyl]-6-[5-(6-methyl-2-pyridyl)-1H-imidazol-4-yl]quinolin-3-amine], the Ki in assay [1] is 0.0398 to 0.316 nM. Also, in assay [2], the IC50 is 200 to 1260 nM.

As for `Cc1cccc(-c2[nH]cnc2-c2ccc3ncc(C(=O)O[C@@H]4CCCC[C@@H]4N)cc3c2)n1` [Compound 881, (1R,2S)-2-aminocyclohexyl 6-(5-(6-methylpyridin-2-yl)-1H-imidazol-4-yl)quinoline-3-carboxylate], in assay [1], the Ki was 3.98 to 31.6 nM. In assay [2], the IC50 was 200 to 1260 nM.

On to `Cc1cccc(-c2[nH]cnc2-c2ccc3ncc(-c4nc5c(s4)CCNC5)cc3c2)n1` [Compound 727, 2-(6-(5-(6-methylpyridin-2-yl)-1H-imidazol-4-yl)quinolin-3-yl)-4,5,6,7-tetrahydrothiazolo[4,5-c]pyridine], for which the Ki in assay [1] is below 0.0316 nM. Besides, the IC50 in assay [2] is below 20 nM.

For `Cc1cccc(-c2[nH]cnc2-c2ccc3ncc(-c4cc(C(=O)OC5CCNCC5)ccn4)cc3c2)n1` [Compound 1115, 4-piperidyl 2-[6-[5-(6-methyl-2-pyridyl)-1H-imidazol-4-yl]-3-quinolyl]pyridine-4-carboxylate], in assay [1], the Ki was 0.0398 to 0.316 nM. In addition, in assay [2], the IC50 was 25.1 to 158 nM.

Turning to `Cc1cccc(-c2[nH]cnc2-c2ccc3ncc(-c4cncc(CN5C[C@@H](C)N[C@@H](C)C5)c4)cc3c2)n1` [Compound 1106, 3-[5-[[(3S,5R)-3,5-dimethylpiperazin-1-yl]methyl]-3-pyridyl]-6-[5-(6-methyl-2-pyridyl)-1H-imidazol-4-yl]quinoline], the Ki in assay [1] was 0.0398 to 0.316 nM. Further, in assay [2], the IC50 is 25.1 to 158 nM.

With `Cc1cccc(-c2n[nH]cc2-c2ccc3nccc(CNCCN4CCN(C(C)C)CC4)c3n2)n1` [Compound 820, 2-(4-isopropylpiperazin-1-yl)-N-[[6-[3-(6-methyl-2-pyridyl)-1H-pyrazol-4-yl]-1,5-naphthyridin-4-yl]methyl]ethanamine], the Ki in assay [1] was 0.0398 to 0.316 nM. In assay [2], the IC50 is 25.1 to 158 nM.

Turning to `Cc1cccc(-c2[nH]cnc2-c2ccc3nccc(C4CCCN4)c3c2)n1` (stereo not shown) [Compound 154, 6-[5-(6-methyl-2-pyridyl)-1H-imidazol-4-yl]-4-pyrrolidin-2-yl-quinoline], the Ki in assay [1] was 3.98 to 31.6 nM. Besides, the IC50 in assay [2] is 200 to 1260 nM.

Regarding `Cc1cccc(-c2n[nH]cc2-c2ccc3ncc(N4CCC[C@@H](N(C)C)C4)cc3n2)n1` [Compound 433, (3R)-N,N-dimethyl-1-[6-[3-(6-methyl-2-pyridyl)-1H-pyrazol-4-yl]-1,5-naphthyridin-3-yl]piperidin-3-amine], the Ki in assay [1] was 0.0398 to 0.316 nM. Further, the IC50 in assay [2] is 25.1 to 158 nM.

In the case of `Cc1cccc(-c2n[nH]cc2-c2ccc3nccc(CO)c3n2)n1` [Compound 801, [6-[3-(6-methyl-2-pyridyl)-1H-pyrazol-4-yl]-1,5-naphthyridin-4-yl]methanol], the Ki in assay [1] was 0.398 to 3.16 nM. Also, the IC50 in assay [2] is 200 to 1260 nM.

With `Cc1cccc(-c2n[nH]cc2-c2ccc3ncc(N(C)C4CCN(C)C4)cc3n2)n1` (racemic) [Compound 140, N-methyl-6-[3-(6-methyl-2-pyridyl)-1H-pyrazol-4-yl]-N-[rac-(3R)-1-methylpyrrolidin-3-yl]-1,5-naphthyridin-3-amine], in assay [1], the Ki is below 0.0316 nM. The IC50 in assay [2] was 25.1 to 158 nM.

Consider `Cc1cccc(-c2[nH]cnc2-c2ccc3ncc(-c4ncc(C(=O)O[C@@H]5CCNC5)cn4)cc3c2)n1` [Compound 1079, [(3R)-pyrrolidin-3-yl] 2-[6-[5-(6-methyl-2-pyridyl)-1H-imidazol-4-yl]-3-quinolyl]pyrimidine-5-carboxylate], for which the Ki in assay [1] is 0.0398 to 0.316 nM. Moreover, in assay [2], the IC50 was 25.1 to 158 nM.

As for `Cc1cccc(-c2[nH]ncc2-c2ccc3ncc(C(=O)OC4CCNCC4)cc3n2)n1` [Compound 485, 4-piperidyl 6-[5-(6-methyl-2-pyridyl)-1H-pyrazol-4-yl]-1,5-naphthyridine-3-carboxylate], the Ki in assay [1] is 0.0398 to 0.316 nM. Besides, the IC50 in assay [2] was 25.1 to 158 nM.

Take `Cc1cccc(-c2[nH]cnc2-c2ccc3ncc(-c4cccc(C(=O)O[C@@H]5CCNC5)c4)cc3c2)n1` [Compound 736, [(3R)-pyrrolidin-3-yl] 3-[6-[5-(6-methyl-2-pyridyl)-1H-imidazol-4-yl]-3-quinolyl]benzoate]: the Ki in assay [1] is 0.0398 to 0.316 nM. The IC50 in assay [2] was 25.1 to 158 nM.
